Target: DAGLα (Mus musculus (Mouse), UniProt Q6WQJ1)
Assay: time-course of DAGL inhibition and recovery in mice, competitive ABPP with compound 58 probe
Assay type: in vivo
Details: 3 mg/kg
Method: Inhibition of DAGL in mice with DAGL compounds 14 and 17 was investigated as a function of time as determined by competitive ABPP using the compound 58 probe (1 μM, 30 min).

Chain of DAGLα (Q6WQJ1 whole entry): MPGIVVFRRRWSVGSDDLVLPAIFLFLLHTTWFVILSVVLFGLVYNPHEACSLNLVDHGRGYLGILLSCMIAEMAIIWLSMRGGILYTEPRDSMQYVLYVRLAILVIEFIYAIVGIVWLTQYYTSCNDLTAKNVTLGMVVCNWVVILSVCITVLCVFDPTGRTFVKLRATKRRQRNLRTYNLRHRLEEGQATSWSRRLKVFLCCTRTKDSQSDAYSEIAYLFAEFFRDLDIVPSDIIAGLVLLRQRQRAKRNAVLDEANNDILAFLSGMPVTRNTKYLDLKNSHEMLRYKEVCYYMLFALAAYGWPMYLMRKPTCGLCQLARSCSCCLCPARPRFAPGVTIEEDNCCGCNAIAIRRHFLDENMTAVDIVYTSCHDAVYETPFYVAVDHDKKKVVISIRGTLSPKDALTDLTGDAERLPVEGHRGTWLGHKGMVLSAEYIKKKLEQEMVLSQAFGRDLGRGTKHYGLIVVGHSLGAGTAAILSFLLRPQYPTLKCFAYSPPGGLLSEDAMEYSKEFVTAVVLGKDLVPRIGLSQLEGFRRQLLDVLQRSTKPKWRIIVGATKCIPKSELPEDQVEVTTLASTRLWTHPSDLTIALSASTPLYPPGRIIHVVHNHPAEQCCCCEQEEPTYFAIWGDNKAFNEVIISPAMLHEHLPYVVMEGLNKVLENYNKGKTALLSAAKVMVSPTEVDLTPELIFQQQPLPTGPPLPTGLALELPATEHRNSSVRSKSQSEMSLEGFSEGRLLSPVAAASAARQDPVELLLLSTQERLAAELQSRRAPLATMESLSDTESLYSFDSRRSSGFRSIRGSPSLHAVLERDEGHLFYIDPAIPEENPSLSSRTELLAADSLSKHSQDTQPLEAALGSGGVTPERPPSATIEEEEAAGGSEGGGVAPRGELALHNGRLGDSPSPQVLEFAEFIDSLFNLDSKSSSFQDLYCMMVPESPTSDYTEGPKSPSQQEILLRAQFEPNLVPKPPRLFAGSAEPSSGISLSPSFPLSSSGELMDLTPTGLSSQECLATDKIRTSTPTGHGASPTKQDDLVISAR

CC(C)(C)OC(=O)N1CCN(C(=O)n2cc(-c3ccc(OC(F)(F)F)cc3)nn2)C(Cc2ccccc2)C1 (centres unmarked) [Compound 17, tert-Butyl 3-benzyl-4-(4-(4-(trifluoromethoxy)phenyl)-1H-1,2,3-triazole-1-carbonyl)piperazine-1-carboxylate]
time by which DAGLα enzyme activity recovered: ≤ 4 h | time to substantial inhibition of DAGLα after administration: ≤ 30 min
